According to patent US6482921B1, “Uridyl peptide antibiotic (UPA) derivatives, their synthesis and use” (Essential Therapeutics, Inc., priority 1999, dated 2002):
Converted amounts (≈) assume the structure as drawn. Read-outs that look alike come from different tables or passages of the source.

Columns and labels:
[1] = test system: Pseudomonas aeruginosa PAM 1020; assay: MIC broth microdilution, P. aeruginosa PAM 1020 (wild type); assay type: cell-based; details: P. aeruginosa PAM 1020
[2] = test system: Pasteurella multocida pm002; assay: MIC broth microdilution, P. multocida pm002 (wild type); assay type: cell-based
[3] = test system: Escherichia Coli MC 4100 AcrAB UPA3r; assay: MIC broth microdilution, E. coli MC 4100 AcrAB UPA3r (ΔAcrAB, UPA resistant); assay type: cell-based; details: E. coli AcrAB UPA3^r
[4] = test system: Pseudomonas aeruginosa PAM 1135; assay: MIC broth microdilution, P. aeruginosa PAM 1135 (high level UPA resistance); assay type: cell-based; details: P. aeruginosa PAM 1135 UPA1^r
[5] = test system: Staphylococcus aureus 8325-4; assay: MIC broth microdilution, S. aureus 8325-4 (wild type); assay type: cell-based; details: S. aureus 8325-4
[6] = test system: Mycobacterium tuberculosis TN913; assay: MIC agar dilution, M. tuberculosis TN913; assay type: cell-based
[7] = test system: Escherichia Coli MC 4100 AcrAB; assay: MIC broth microdilution, E. coli MC 4100 AcrAB (ΔAcrAB); assay type: cell-based; details: E. coli AcrAB
[8] = test system: Pseudomonas aeruginosa PAM 1154; assay: MIC broth microdilution, P. aeruginosa PAM 1154 (OprM::Hg); assay type: cell-based; details: P. aeruginosa PAM 1154 OprM::Hg
[9] = test system: Pseudomonas aeruginosa PAM 1323; assay: MIC broth microdilution, P. aeruginosa PAM 1323 (medium level UPA resistance); assay type: cell-based
[10] = test system: Mycobacterium tuberculosis H37Rv; assay: MIC agar dilution, M. tuberculosis H37Rv; assay type: cell-based
[11] = test system: Staphylococcus aureus ATCC 29213; assay: MIC broth microdilution, S. aureus ATCC 29213 (wild type); assay type: cell-based; details: S. aureus ATCC 29213
Escherichia Coli MC 4100 = assay: MIC broth microdilution, E. coli MC 4100 (wild type); assay type: cell-based; details: E. coli MC 4100
[12] = test system: Mycobacterium fortuitum ATCC 6841; assay: MIC broth microdilution, M. fortuitum ATCC 6841; details: 72 hours at 35° C., CAMHB
[13] = test system: Mycobacterium smegmatis ATCC 19420; assay: MIC broth microdilution, M. smegmatis ATCC 19420; details: 72 hours at 35° C., CAMHB
[14] = agar dilution, Middlebrook 7H10 agar, four weeks at 35° C., 0, 1, 10 and 30 tested

CC(C)C[C@H](NC(=O)N[C@@H](Cc1c[nH]c2ccccc12)C(=O)O)C(=O)N[C@H](C(=O)NC[C@H]1C[C@@H](O)[C@H](n2ccc(=O)[nH]c2=O)O1)[C@H](C)N(C)C(=O)CN [Compound 109]
MIC (μg/ml) Broth microdilution [1]: 4 µg/mL (≈ 5.39 µM) | MIC (μg/ml) Broth microdilution [2]: 128 µg/mL (≈ 173 µM) | MIC (μg/ml) Broth microdilution [3]: 8 µg/mL (≈ 10.8 µM) | MIC (μg/ml) Broth microdilution [4]: >512 µg/mL | MIC (μg/ml) Broth microdilution [5]: >512 µg/mL | MIC TN913 (SENSITIVE) [6]: 30 µg/mL (≈ 40.4 µM) | MIC (μg/ml) Broth microdilution [7]: <1 µg/mL | MIC (μg/ml) Broth microdilution [8]: <1 µg/mL | MIC (μg/ml) Broth microdilution [9]: 128 µg/mL (≈ 173 µM) | MIC H37RV (SENSITIVE) [10]: >30 µg/mL | MIC (μg/ml) Broth microdilution [11]: >512 µg/mL | MIC (μg/ml) Broth microdilution (Escherichia Coli MC 4100): 128 µg/mL (≈ 173 µM)

CC(N)C(=O)N(C)C(C)C(NC(=O)C(Cc1ccc(I)cc1)NC(=O)NC(Cc1ccc(O)cc1)C(=O)O)C(=O)NCC1CC(O)C(n2ccc(=O)[nH]c2=O)O1 [Compound 134, 1-[5′-[(2S,3S)-N^3-L-Alanyl-N^2-[N-[[(1S)-1-carboxy-4-hydroxyphenethyl]carbamoyl]-L-4-iodophenylalanyl]-N^3-methyl-2,3-diaminobutyramido]-3′,5′-dideoxy-α-L-arabinofuranosyl]uracil]
MIC (μg/ml) Broth microdilution [1]: 256 µg/mL (≈ 287 µM) | MIC (μg/ml) Broth microdilution [2]: >512 µg/mL | MIC Broth microdilution M. fortuitum ATCC 6841 [12]: 32 µg/mL (≈ 35.8 µM) | MIC (μg/ml) Broth microdilution [3]: 32 µg/mL (≈ 35.8 µM) | MIC Broth microdilution M. smegmatis ATCC19420 [13]: 16 µg/mL (≈ 17.9 µM) | MIC (μg/ml) Broth microdilution [4]: >512 µg/mL | MIC (μg/ml) Broth microdilution [5]: 512 µg/mL (≈ 574 µM) | MIC (μg/ml) Broth microdilution [7]: <1 µg/mL | MIC (μg/ml) Broth microdilution [8]: 32 µg/mL (≈ 35.8 µM) | MIC (μg/ml) Broth microdilution [9]: >512 µg/mL | MIC (μg/ml) Broth microdilution [11]: 512 µg/mL (≈ 574 µM) | MIC (μg/ml) Broth microdilution (Escherichia Coli MC 4100): 128 µg/mL (≈ 143 µM)

CC(N)C(=O)N(C)C(C)C(NC(=O)C(Cc1ccc(Cl)cc1)NC(=O)NC(Cc1ccc(O)cc1)C(=O)O)C(=O)NCC1CC(O)C(n2ccc(=O)[nH]c2=O)O1 [Compound 135, 1-[5′-[(2S,3S)-N^3-L-Alanyl-N^2-[N-[[(1S)-1-carboxy-4-hydroxyphenethyl]carbamoyl]-L-4-chlorophenylalanyl]-N^3-methyl-2,3-diaminobutyramido]-3′,5′-dideoxy-α-L-arabinofuranosyl]uracil]
MIC (μg/ml) Broth microdilution [1]: 64 µg/mL (≈ 79.9 µM) | MIC (μg/ml) Broth microdilution [2]: 512 µg/mL (≈ 639 µM) | MIC Broth microdilution M. fortuitum ATCC 6841 [12]: 64 µg/mL (≈ 79.9 µM) | MIC (μg/ml) Broth microdilution [3]: 2 µg/mL (≈ 2.5 µM) | MIC Broth microdilution M. smegmatis ATCC19420 [13]: 16 µg/mL (≈ 20 µM) | MIC (μg/ml) Broth microdilution [4]: >512 µg/mL | MIC (μg/ml) Broth microdilution [5]: >512 µg/mL | MIC (μg/ml) Broth microdilution [7]: <1 µg/mL | MIC (μg/ml) Broth microdilution [8]: 16 µg/mL (≈ 20 µM) | MIC (μg/ml) Broth microdilution [9]: >512 µg/mL | MIC (μg/ml) Broth microdilution [11]: 512 µg/mL (≈ 639 µM) | MIC (μg/ml) Broth microdilution (Escherichia Coli MC 4100): 8 µg/mL (≈ 9.98 µM)

CC(N)C(=O)N(C)C(C)C(NC(=O)C(CC1CCCCC1)NC(=O)NC(Cc1c[nH]c2ccccc12)C(=O)O)C(=O)NCC1CC(O)C(n2ccc(=O)[nH]c2=O)O1 [Compound 136, 1-[5-(2S 3S)-N^3-L-Alanyl-N^2-[N-[[(1S)-1-carboxy-2-indol-3-ylethyl]carbamoyl]-L-cyclohexylalanyl]-N^3-methyl-2,3-diaminobutyramido]-3′,5′-dideoxy-α-L-arabinofuranosyl]uracil]
MIC (μg/ml) Broth microdilution [1]: 128 µg/mL (≈ 161 µM) | MIC (μg/ml) Broth microdilution [2]: >512 µg/mL | MIC Broth microdilution M. fortuitum ATCC 6841 [12]: 128 µg/mL (≈ 161 µM) | MIC (μg/ml) Broth microdilution [3]: 64 µg/mL (≈ 80.4 µM) | MIC Broth microdilution M. smegmatis ATCC19420 [13]: 8 µg/mL (≈ 10.1 µM) | MIC (μg/ml) Broth microdilution [4]: >512 µg/mL | MIC (μg/ml) Broth microdilution [5]: >512 µg/mL | MIC (μg/ml) Broth microdilution [7]: 4 µg/mL (≈ 5.03 µM) | MIC (μg/ml) Broth microdilution [8]: 64 µg/mL (≈ 80.4 µM) | MIC (μg/ml) Broth microdilution [9]: >512 µg/mL | MIC (μg/ml) Broth microdilution [11]: >512 µg/mL | MIC (μg/ml) Broth microdilution (Escherichia Coli MC 4100): >512 µg/mL

CC(N)C(=O)N(C)C(C)C(NC(=O)C(Cc1ccc(C(F)(F)F)cc1)NC(=O)NC(Cc1c[nH]c2ccccc12)C(=O)O)C(=O)NCC1CC(O)C(n2ccc(=O)[nH]c2=O)O1 [Compound 146, 1-[5′-[(2S,3S)-N^3-L-Alanyl-N^2-[N-[[(1S)-1-carboxy-2-indol-3-ylethyl]carbamoyl]-L-4-(trifluoromethyl)phenylalanyl]-N^3-methyl-2,3-diaminobutyramido]-3′,5′-dideoxy-α-L-arabinofuranosyl]uracil]
MIC (μg/ml) Broth microdilution [1]: 256 µg/mL (≈ 298 µM) | MIC (μg/ml) Broth microdilution [2]: 64 µg/mL (≈ 74.6 µM) | MIC (μg/ml) Broth microdilution [3]: 64 µg/mL (≈ 74.6 µM) | MIC (μg/ml) Broth microdilution [4]: >512 µg/mL | MIC (μg/ml) Broth microdilution [5]: 256 µg/mL (≈ 298 µM) | MIC TN913 (SENSITIVE) [6]: 10 µg/mL (≈ 11.7 µM) | MIC (μg/ml) Broth microdilution [7]: 2 µg/mL (≈ 2.33 µM) | MIC (μg/ml) Broth microdilution [8]: 32 µg/mL (≈ 37.3 µM) | MIC (μg/ml) Broth microdilution [9]: >512 µg/mL | MIC H37RV (SENSITIVE) [10]: 10 µg/mL (≈ 11.7 µM) | MIC (μg/ml) Broth microdilution [11]: 512 µg/mL (≈ 597 µM) | MIC (μg/ml) Broth microdilution (Escherichia Coli MC 4100): 512 µg/mL (≈ 597 µM)

CC(C(NC(=O)C(Cc1ccccc1)NC(=O)NC(Cc1c[nH]c2ccccc12)C(=O)O)C(=O)NCC1CC(O)C(n2ccc(=O)[nH]c2=O)O1)N(C)C(=O)C(N)Cc1ccccc1 [Compound 156, 1-[5′-[(2S,3S)-N^2-[N-[[(1S)-1-Carboxy-2-indol-3-ylethyl]carbamoyl]-L-phenylalanyl]-N^3-L-phenylalanyl-N^3-methyl-2,3-diaminobutyramido]-3′,5′-dideoxy-α-L-arabinofuranosyl]uracil]
MIC (μg/ml) Broth microdilution [1]: 32 µg/mL (≈ 37 µM) | MIC (μg/ml) Broth microdilution [2]: 256 µg/mL (≈ 296 µM) | MIC Broth microdilution M. fortuitum ATCC 6841 [12]: 256 µg/mL (≈ 296 µM) | MIC (μg/ml) Broth microdilution [3]: 512 µg/mL (≈ 591 µM) | MIC Broth microdilution M. smegmatis ATCC19420 [13]: 16 µg/mL (≈ 18.5 µM) | MIC (μg/ml) Broth microdilution [4]: 256 µg/mL (≈ 296 µM) | MIC (μg/ml) Broth microdilution [5]: >512 µg/mL | MIC (μg/ml) Broth microdilution [7]: 4 µg/mL (≈ 4.62 µM) | MIC (μg/ml) Broth microdilution [8]: 32 µg/mL (≈ 37 µM) | MIC (μg/ml) Broth microdilution [9]: 256 µg/mL (≈ 296 µM) | MIC (μg/ml) Broth microdilution [11]: >512 µg/mL | MIC (μg/ml) Broth microdilution (Escherichia Coli MC 4100): 512 µg/mL (≈ 591 µM)

C[C@H](N)C(=O)N(C)[C@@H](C)[C@H](NC(=O)[C@H](Cc1ccccc1)NC(=O)N[C@@H](Cc1ccc(O)cc1)C(=O)O)C(=O)NC[C@H]1C[C@@H](O)[C@H](n2ccc(=O)[nH]c2=O)O1 [Compound 160]
MIC (μg/ml) Broth microdilution [1]: 16 µg/mL (≈ 20.9 µM) | MIC (μg/ml) Broth microdilution [2]: 256 µg/mL (≈ 334 µM) | MIC Broth microdilution M. fortuitum ATCC 6841 [12]: 128 µg/mL (≈ 167 µM) | MIC (μg/ml) Broth microdilution [3]: 4 µg/mL (≈ 5.22 µM) | MIC Broth microdilution M. smegmatis ATCC19420 [13]: 16 µg/mL (≈ 20.9 µM) | MIC (μg/ml) Broth microdilution [4]: >512 µg/mL | MIC (μg/ml) Broth microdilution [5]: 512 µg/mL (≈ 668 µM) | MIC (μg/ml) Broth microdilution [7]: <1 µg/mL | MIC (μg/ml) Broth microdilution [8]: 8 µg/mL (≈ 10.4 µM) | MIC (μg/ml) Broth microdilution [9]: >512 µg/mL | MIC (μg/ml) Broth microdilution [11]: 512 µg/mL (≈ 668 µM) | MIC (μg/ml) Broth microdilution (Escherichia Coli MC 4100): 32 µg/mL (≈ 41.7 µM)

C[C@H](NC(=O)N[C@@H](Cc1c[nH]c2ccccc12)C(=O)O)C(=O)N[C@H](C(=O)N/C=C1/C[C@@H](O)[C@H](n2ccc(=O)[nH]c2=O)O1)[C@H](C)N(C)C(=O)[C@@H](N)Cc1cccc(O)c1 [Pacidamycin 4, reference compound]
MIC TN913 (SENSITIVE) [6, 14]: >30 µg/mL | MIC H37RV (SENSITIVE) [10, 14]: >30 µg/mL
